In patent publication US5324502A, “Radiopharmaceuticals for imaging the heart” (priority 1992, dated 1994):
Read-outs that look alike come from different tables or passages of the source.

Tests used:
[1] = rat, i.v.; for % injected dose in heart, 1 min / % injected dose in heart, 2 h: preliminary studies; for Heart/Blood / Heart/Liver / Heart/Lungs: ratio
Description: The gallium-67 complexes are prepared by ligand exchange from gallium-67 chloride, employing the tris(acetylacetonato)gallium(III) complex as an intermediate. The Ga-67 acetylacetonate in ethanol is reacted with the chelating ligand or ligand precursor at elevated temperature to form rapidly the desired gallium radiopharmaceutical. […] The biodistribution of several radiopharmaceuticals was determined in rats following intravenous injection using techniques previously described (M. A. Green, Nuclear Medicine and Biology 14:59-61, 1987; E. John and M. A. Green, J. Medicinal Chemistry, 33:1764-1770, 1990).
Under ether anesthesia, 1 to 3 μCi (0.1-0.2 mL) of no-carrier-added Ga-67 compound was administered by bolus injection into the femoral vein of male Sprague-Dawley rats. The ether anesthetized rats were sacrificed by decapitation at given time intervals post-injection, organs of interest were removed, weighed, and the gallium-67 activity counted. The biodistribution was calculated as a percentage of the injected dose per gram of tissue and percentage of injected dose per organ for each sample.

[2] = Octanol/water partition coefficient of radiolabeled gallium complexes; assay type: physicochemical; conditions: 1-octanol / isotonic Tris buffer pH 7.0
Description: Octanol/water partition coefficients were measured by vortex mixing 1 mL of 1-octanol and 1 mL of isotonic Tris buffer (pH 7.0) with a 1-5 μL sample of the radiolabeled gallium complex. Following centrifugation at >1200 g for 5 minutes, the octanol and aqueous phases were sampled and counted in an automatic well counter.

Molecule: ^67 GaL^+ L = [(4,6-MeO2 Sal)2 DM-BAPEN, ^67 GaL^+ L = [bis(4,6-dimethoxysalicylaldimino)-N,N'-bis(2,2'-dimethyl-3-aminopropyl)-ethylenediamine]]
- % Injected Dose per Gram Tissue, Blood ([1]; 1 min): 1.30 ± 0.45 % Injected Dose per Gram Tissu
- % Injected Dose per Gram Tissue, Brain ([1]; 1 min): 0.06 ± 0.01 % Injected Dose per Gram Tissu
- % Injected Dose per Gram Tissue, Heart ([1]; 1 min): 1.31 ± 0.17 % Injected Dose per Gram Tissu
- % Injected Dose per Gram Tissue, Kidney (one) ([1]; 1 min): 10.62 ± 0.94 % Injected Dose per Gram Tissu
- % Injected Dose per Gram Tissue, Liver ([1]; 1 min): 5.82 ± 0.93 % Injected Dose per Gram Tissu
- % Injected Dose per Gram Tissue, Lungs ([1]; 1 min): 1.24 ± 0.20 % Injected Dose per Gram Tissu
- % Injected Dose per Gram Tissue, Spleen ([1]; 1 min): 1.59 ± 0.57 % Injected Dose per Gram Tissu
- % Injected Dose per Organ, Blood ([1]; 1 min): 18.76 ± 6.91 % Injected Dose per Organ
- % Injected Dose per Organ, Brain ([1]; 1 min): 0.10 ± 0.02 % Injected Dose per Organ
- % Injected Dose per Organ, Heart ([1]; 1 min): 1.03 ± 0.17 % Injected Dose per Organ
- % Injected Dose per Organ, Kidney (one) ([1]; 1 min): 8.33 ± 0.80 % Injected Dose per Organ
- % Injected Dose per Organ, Liver ([1]; 1 min): 50.62 ± 5.72 % Injected Dose per Organ
- % Injected Dose per Organ, Lungs ([1]; 1 min): 1.63 ± 0.47 % Injected Dose per Organ
- % Injected Dose per Organ, Spleen ([1]; 1 min): 1.07 ± 0.35 % Injected Dose per Organ
- % injected dose in heart, 1 min ([1]; 1 min): 1.03 ± 0.17 % injected dose
- % Injected Dose per Gram Tissue, Blood ([1]; 15 min): 0.13 ± 0.01 % Injected Dose per Gram Tissu
- % Injected Dose per Gram Tissue, Brain ([1]; 15 min): 0.03 ± 0.01 % Injected Dose per Gram Tissu
- % Injected Dose per Gram Tissue, Heart ([1]; 15 min): 1.23 ± 0.07 % Injected Dose per Gram Tissu
- % Injected Dose per Gram Tissue, Kidney (one) ([1]; 15 min): 10.49 ± 0.92 % Injected Dose per Gram Tissu
- % Injected Dose per Gram Tissue, Liver ([1]; 15 min): 3.92 ± 0.20 % Injected Dose per Gram Tissu
- % Injected Dose per Gram Tissue, Lungs ([1]; 15 min): 0.63 ± 0.03 % Injected Dose per Gram Tissu
- % Injected Dose per Gram Tissue, Spleen ([1]; 15 min): 1.96 ± 0.32 % Injected Dose per Gram Tissu
- % Injected Dose per Organ, Blood ([1]; 15 min): 1.97 ± 0.15 % Injected Dose per Organ
- % Injected Dose per Organ, Brain ([1]; 15 min): 0.04 ± 0.01 % Injected Dose per Organ
- % Injected Dose per Organ, Heart ([1]; 15 min): 0.93 ± 0.04 % Injected Dose per Organ
- % Injected Dose per Organ, Kidney (one) ([1]; 15 min): 8.77 ± 0.60 % Injected Dose per Organ
- % Injected Dose per Organ, Liver ([1]; 15 min): 36.83 ± 2.91 % Injected Dose per Organ
- % Injected Dose per Organ, Lungs ([1]; 15 min): 0.75 ± 0.05 % Injected Dose per Organ
- % Injected Dose per Organ, Spleen ([1]; 15 min): 1.25 ± 0.20 % Injected Dose per Organ
- % Injected Dose per Gram Tissue, Blood ([1]; 120 min): 0.03 ± 0.01 % Injected Dose per Gram Tissu
- % Injected Dose per Gram Tissue, Brain ([1]; 120 min): 0.02 ± 0.01 % Injected Dose per Gram Tissu
- % Injected Dose per Gram Tissue, Heart ([1]; 120 min): 1.36 ± 0.09 % Injected Dose per Gram Tissu
- % Injected Dose per Gram Tissue, Kidney (one) ([1]; 120 min): 6.86 ± 0.54 % Injected Dose per Gram Tissu
- % Injected Dose per Gram Tissue, Liver ([1]; 120 min): 0.42 ± 0.02 % Injected Dose per Gram Tissu
- % Injected Dose per Gram Tissue, Lungs ([1]; 120 min): 0.58 ± 0.06 % Injected Dose per Gram Tissu
- % Injected Dose per Gram Tissue, Spleen ([1]; 120 min): 1.59 ± 0.16 % Injected Dose per Gram Tissu
- % Injected Dose per Organ, Blood ([1]; 120 min): 0.45 ± 0.03 % Injected Dose per Organ
- % Injected Dose per Organ, Brain ([1]; 120 min): 0.04 ± 0.01 % Injected Dose per Organ
- % Injected Dose per Organ, Heart ([1]; 120 min): 0.01 ± 0.06 % Injected Dose per Organ
- % Injected Dose per Organ, Kidney (one) ([1]; 120 min): 5.40 ± 0.24 % Injected Dose per Organ
- % Injected Dose per Organ, Liver ([1]; 120 min): 3.91 ± 0.19 % Injected Dose per Organ
- % Injected Dose per Organ, Lungs ([1]; 120 min): 0.64 ± 0.06 % Injected Dose per Organ
- % Injected Dose per Organ, Spleen ([1]; 120 min): 0.97 ± 0.07 % Injected Dose per Organ
- % injected dose in heart, 2 h [1]: 1.01 ± 0.06 % injected dose
- Heart/Blood ([1]; 1 min): 1.11 ± 0.40
- Heart/Liver ([1]; 1 min): 0.23 ± 0.06
- Heart/Lungs ([1]; 1 min): 1.07 ± 0.12
- Heart/Blood ([1]; 15 min): 9.65 ± 0.53
- Heart/Liver ([1]; 15 min): 0.32 ± 0.02
- Heart/Lungs ([1]; 15 min): 1.96 ± 0.20
- Heart/Blood ([1]; 120 min): 44.46 ± 1.63
- Heart/Liver ([1]; 120 min): 3.24 ± 0.07
- Heart/Lungs ([1]; 120 min): 2.34 ± 0.14
- log P [2]: 2.73

Molecule: COc1cc([O-])c(C=NCCNCCNCCN=Cc2c([O-])cc(OC)cc2OC)c(OC)c1.[67Ga+3] [(4,6-MeO2 Sal)2 TETA, ^67 GaL^+ L = [bis(4,6-dimethoxysalicylaldimino)-N,N'-triethylene-tetraamine]]
- % Injected Dose per Gram Tissue, Blood ([1]; 1 min): 1.90 ± 0.56 % Injected Dose per Gram Tissu
- % Injected Dose per Gram Tissue, Brain ([1]; 1 min): 0.05 ± 0.01 % Injected Dose per Gram Tissu
- % Injected Dose per Gram Tissue, Heart ([1]; 1 min): 0.76 ± 0.04 % Injected Dose per Gram Tissu
- % Injected Dose per Gram Tissue, Kidney (one) ([1]; 1 min): 4.36 ± 0.27 % Injected Dose per Gram Tissu
- % Injected Dose per Gram Tissue, Liver ([1]; 1 min): 1.88 ± 0.15 % Injected Dose per Gram Tissu
- % Injected Dose per Gram Tissue, Lungs ([1]; 1 min): 0.97 ± 0.03 % Injected Dose per Gram Tissu
- % Injected Dose per Gram Tissue, Spleen ([1]; 1 min): 0.35 ± 0.02 % Injected Dose per Gram Tissu
- % Injected Dose per Organ, Blood ([1]; 1 min): 19.26 ± 2.97 % Injected Dose per Organ
- % Injected Dose per Organ, Brain ([1]; 1 min): 0.07 ± 0.01 % Injected Dose per Organ
- % Injected Dose per Organ, Heart ([1]; 1 min): 0.55 ± 0.04 % Injected Dose per Organ
- % Injected Dose per Organ, Kidney (one) ([1]; 1 min): 3.83 ± 0.31 % Injected Dose per Organ
- % Injected Dose per Organ, Liver ([1]; 1 min): 16.90 ± 1.70 % Injected Dose per Organ
- % Injected Dose per Organ, Lungs ([1]; 1 min): 1.17 ± 0.23 % Injected Dose per Organ
- % Injected Dose per Organ, Spleen ([1]; 1 min): 0.22 ± 0.01 % Injected Dose per Organ
- % injected dose in heart, 1 min ([1]; 1 min): 0.55 ± 0.04 % injected dose
- % Injected Dose per Gram Tissue, Blood ([1]; 15 min): 0.71 ± 0.08 % Injected Dose per Gram Tissu
- % Injected Dose per Gram Tissue, Brain ([1]; 15 min): 0.03 ± 0.01 % Injected Dose per Gram Tissu
- % Injected Dose per Gram Tissue, Heart ([1]; 15 min): 0.53 ± 0.06 % Injected Dose per Gram Tissu
- % Injected Dose per Gram Tissue, Kidney (one) ([1]; 15 min): 2.35 ± 0.41 % Injected Dose per Gram Tissu
- % Injected Dose per Gram Tissue, Liver ([1]; 15 min): 2.42 ± 0.25 % Injected Dose per Gram Tissu
- % Injected Dose per Gram Tissue, Lungs ([1]; 15 min): 0.51 ± 0.05 % Injected Dose per Gram Tissu
- % Injected Dose per Gram Tissue, Spleen ([1]; 15 min): 0.18 ± 0.02 % Injected Dose per Gram Tissu
- % Injected Dose per Organ, Blood ([1]; 15 min): 9.32 ± 1.38 % Injected Dose per Organ
- % Injected Dose per Organ, Brain ([1]; 15 min): 0.04 ± 0.01 % Injected Dose per Organ
- % Injected Dose per Organ, Heart ([1]; 15 min): 0.36 ± 0.03 % Injected Dose per Organ
- % Injected Dose per Organ, Kidney (one) ([1]; 15 min): 1.89 ± 0.40 % Injected Dose per Organ
- % Injected Dose per Organ, Liver ([1]; 15 min): 20.33 ± 1.11 % Injected Dose per Organ
- % Injected Dose per Organ, Lungs ([1]; 15 min): 0.50 ± 0.05 % Injected Dose per Organ
- % Injected Dose per Organ, Spleen ([1]; 15 min): 0.11 ± 0.02 % Injected Dose per Organ
- % Injected Dose per Gram Tissue, Blood ([1]; 120 min): 0.03 ± 0.01 % Injected Dose per Gram Tissu
- % Injected Dose per Gram Tissue, Brain ([1]; 120 min): 0.01 ± 0.01 % Injected Dose per Gram Tissu
- % Injected Dose per Gram Tissue, Heart ([1]; 120 min): 0.28 ± 0.05 % Injected Dose per Gram Tissu
- % Injected Dose per Gram Tissue, Kidney (one) ([1]; 120 min): 0.51 ± 0.10 % Injected Dose per Gram Tissu
- % Injected Dose per Gram Tissue, Liver ([1]; 120 min): 0.83 ± 0.15 % Injected Dose per Gram Tissu
- % Injected Dose per Gram Tissue, Lungs ([1]; 120 min): 0.08 ± 0.02 % Injected Dose per Gram Tissu
- % Injected Dose per Gram Tissue, Spleen ([1]; 120 min): 0.06 ± 0.01 % Injected Dose per Gram Tissu
- % Injected Dose per Organ, Blood ([1]; 120 min): 0.34 ± 0.02 % Injected Dose per Organ
- % Injected Dose per Organ, Brain ([1]; 120 min): 0.01 ± 0.01 % Injected Dose per Organ
- % Injected Dose per Organ, Heart ([1]; 120 min): 0.19 ± 0.03 % Injected Dose per Organ
- % Injected Dose per Organ, Kidney (one) ([1]; 120 min): 0.42 ± 0.04 % Injected Dose per Organ
- % Injected Dose per Organ, Liver ([1]; 120 min): 6.90 ± 1.07 % Injected Dose per Organ
- % Injected Dose per Organ, Lungs ([1]; 120 min): 0.10 ± 0.01 % Injected Dose per Organ
- % Injected Dose per Organ, Spleen ([1]; 120 min): 0.04 ± 0.01 % Injected Dose per Organ
- % injected dose in heart, 2 h [1]: 0.19 ± 0.03 % injected dose
- Heart/Blood ([1]; 1 min): 0.53 ± 0.04
- Heart/Liver ([1]; 1 min): 0.41 ± 0.04
- Heart/Lungs ([1]; 1 min): 0.79 ± 0.05
- Heart/Blood ([1]; 15 min): 0.74 ± 0.03
- Heart/Liver ([1]; 15 min): 0.22 ± 0.01
- Heart/Lungs ([1]; 15 min): 1.03 ± 0.20
- Heart/Blood ([1]; 120 min): 10.29 ± 2.64
- Heart/Liver ([1]; 120 min): 0.34 ± 0.05
- Heart/Lungs ([1]; 120 min): 3.49 ± 0.37
- log P [2]: 0.24
